Results reported in patent US9028880B2, “Silica nanoparticle agent conjugates” (priority 2010, dated 2015).

How the values were obtained:
LLC tumor [1] = assay: In vivo tumor prevention study; design: species or system C57Bl/6 mice; conditions: s.c. co-injection with LLC cells
Procedure: To access the ability of Cpt-NCs to prevent establishment of a murine lung cancer in an in vivo model, Cpt-NCs were evaluated in the rapidly growing subcutaneous (s.c.) LLC tumor model in C57Bl/6 female mice. The ability of Cpt50 (5 mg/kg) to prevent LLC tumor establishment and growth was assessed by comparing to free Cpt (5 mg/kg) and LLC cancer cells alone without any treatment. The mice were s.c. injected with the mixture of [LLC and Cpt50], [LLC and Cpt] or LLC alone Animals were monitored clinically and the tumors were measured daily without knowledge of the treatment received.
Female C57Bl/6 mice, 12-13 weeks old, were anesthetized, shaved, and prepared for implantation of the tumor cells. LLC cells were collected from culture, and 750,000 cells were then mixed with Cpt50 and immediately injected subcutaneously into one flank of a mouse. The dose of equivalent Cpt was 5 mg/kg. Equivalent injections of cells with free CPT solubilized with Tween 80 (5%)/DMSO (10%) or PBS were also performed (n=5). The simultaneous injection procedure is required to assure that the cancer cells and the treatment are delivered to the same subcutaneous pocket as it would be easy to accidentally inject into different spaces when performing two separate injections.

[2] = test system: LNCaP prostate adenocarcinoma cells; assay: In vitro toxicity (MTT assay); assay type: cell-based; conditions: Homo sapiens, MTT assay after 96 h, CPT or equivalent CPT
Procedure: 3.3. In vitro toxicity (MTT assay). LNCaP prostate adenocarcinoma cell lines were obtained from ATCC (Manassas, Va., USA). Cells were seeded in 96-well plates at 5,000 cells/well and grown in medium containing 10% fetal bovine serum at 37° C. for 24 h in a humidified 5% CO2 atmosphere. The medium was replaced with fresh medium containing CPT, CPT-NPs in concentrations ranging from 1 nM to 10 μM of CPT or equivalent CPT (CPT-NPs). At each concentration, six wells per plate were treated. The effect of the compounds on cell growth was measured by the MTT assay after 96 h. The medium was removed, the cells were rinsed with PBS, MTT solution was added at a concentration of 0.5 mg/mL, and the plates were incubated for 4 hours at 37° C. The medium was removed and the formazan crystals were solubilized in MTT solubilization solution. Absorbance was measured at 560 nm using a Victor V microplate reader (Perkin Elmer, Waltham, Mass.). The percentage of cell survival was calculated relative to untreated cells, and IC50 values were determined from plots of cell survival versus dose (Table 4).

LLC tumor [3] = assay: In vivo tumor reduction study, single i.v. injection; design: species or system C57Bl/6 mice; conditions: emulsified Cpt 30 mg/kg i.v.; all animals reached end point at about day 5
Procedure: The efficacy of the drug conjugated silica NPs was next evaluated using xenograft models of LLC tumor developed by s.c. injection of LLC cells in the flank of C57BL/6 mice. […] Using Cpt as a reference point, the following regimens were administrated by a single i.v. injection: a, PBS; b, PEGylated blank silica NPs; c, emulsified Cpt, 30 mg/kg; d, Cpt-NP, 200 nm, 25 mg/kg; e, Cpt-NP, 20 nm, 25 mg/kg. Tumor size and body weight were then monitored for 10 days. […] Both Cpt-NPs 20 nm and 200 nm in diameter delayed tumor growth at Day 7 and 6, respectively, with statistical significance comparing with control group receiving PBS (p<0.05 by t-test). […] All animals in free Cpt group reached end point with >20% body weight loss at about day 5.
4.5. In vivo Tumor Reduction Study. Female C57Bl/6 mice, 8-week old, were anesthetized, shaved, and prepared for implantation of the tumor cells. […] After two weeks when tumors had reached ˜300 mm^3, mice were divided into five groups of five mice, minimizing weight and tumor size difference. Tumor-bearing mice were treated by intravenous injection of PBS (1×), PEGylated blank silica NPs (250 mg/kg), emulsified free CPT (Tween 80 (5%)/DMSO (10%) in PBS (1×), 30 mg/kg), CPT-NP (200 nm, 25 mg/kg) or CPT-NP (20 nm, 25 mg/kg). […]

MCF-7 tumors = assay: In vivo tumor reduction study, MCF-7 xenograft
Procedure: To further study the effect of particle size, a xenograft human breast cancer model was chosen. Subcutaneous MCF-7 tumors developed on the flank of athymic nude mice were used to evaluate the antitumor efficacy of the drug-silica nanoconjugates with different sizes. The nude mice were implanted with an estrogen pellet and 1,000,000 MCF-7 cells per site. After tumors had developed to ˜40 mm^3, comparative efficacy studies were performed by dividing animals into six groups (n=20 or 24) to minimize weight and tumor size differences among the groups.
Female athymic nude, OVX, 9-week old mice were anesthetized, and prepared for implantation of the tumor cells. […]
After dosing, the animals were monitored closely, and measurements of the tumor size for each animal were performed at regular intervals using calipers without knowledge of which injection each animal had received. The tumor volume for each time point was calculated according to the formula (length)×(width)/2, where the long axis is the length, the short axis is the width. […] When an animal exited the study due to tumor size or treatment related death, the final tumor size recorded for the animal was included with the data used to calculate the mean size at subsequent time point.

SMILES	Day of statistically significant difference vs LLC group (LLC tumor [1]; 5 mg/kg) [days]	Tumor growth prevention (LLC tumor [1]; 5 mg/kg equivalent Cpt)	IC50 [2] [nM]	body weight loss (LLC tumor [3]) [%]	Day from which tumor growth delay was significant vs PBS group (MCF-7 tumors; NCs 20 mg/kg i.v. Q4d×3, Irinotecan 100 mg/kg i.p. Qwk×3, *p<0.05) [days]	Body weight / systemic toxicity (MCF-7 tumors; NCs 20 mg/kg, Irinotecan 100 mg/kg)
CC[C@@]1(O)C(=O)OCc2c1cc1n(c2=O)Cc2cc3ccccc3nc2-1 [CPT, Camptothecin]	20	complete inhibition of tumor growth after Day 20	7	> 20		
CCc1c2c(nc3ccc(OC(=O)N4CCC(N5CCCCC5)CC4)cc13)-c1cc3c(c(=O)n1C2)COC(=O)[C@]3(O)CC [Irinotecan]					8	Significant body weight loss
